Measured values taken from patent publication US12679878B2, “CRF2 receptor agonists and their use in therapy” (SANOFI, priority 2020, dated 2026).
Like-named read-outs stand apart in the source and are kept apart here. Starred links: 1 amine or outer side, 2 acyl side, 3 side chain; linkers in the order of their positions; H or OH if unused. Non-standard residues stand in square brackets, D forms with d. Residues, ends and D or L forms follow the SMILES beside them. Groups on a side chain read outwards from the residue. *: point of attachment. C18 diacid = O=C(O)CCCCCCCCCCCCCCCCC(=O)*; γGlu = O=C(O)[C@H](CCC(=O)[*:2])N[*:1]; Palmitoyl = CCCCCCCCCCCCCCCC(=O)*; Aib = CC(C)(N)C(=O)O

How the values were obtained:
Assay type in all cases: cell-based
[1] = system: rat CRF2R α receptor; experiment: cAMP agonism at rat CRF2R α receptor in A7R5 rat aortic smooth muscle cells (Example 8); details: cAMP HTRF, A7R5 rat aortic smooth muscle cell line, 0% HSA
Description: Cells were grown in a T175 culture flask placed at 37° C. to near confluence in medium (DMEM/10% FBS) and collected in 2 ml vials in cell culture medium containing 10% DMSO in a concentration of 10-50 million cells/ml. Each vial contained 1.8 ml cells. The vials were slowly frozen to −80° C. in isopropanol and then transferred in liquid nitrogen for storage. Prior to use, frozen cells were thawed quickly at 37° C. and washed (5 min at 900 rpm) with 20 ml cell buffer (1×HBSS; 20 mM HEPES; 0% or 0.1% HSA). Cells were resuspended in assay buffer (cell buffer plus 2 mM IBMX) and adjusted to a cell density of 1 million cells/ml. For measurement, 5 μl cells (final […]) and 5 μL of test compound were added to a 384-well plate, followed by incubation for 30 minutes at room temperature.
The CAMP content of cells was determined using a kit from Cisbio Corp. (cat. no. 62AM4PEC) based on HTRF (Homogenous Time Resolved Fluorescence). After addition of HTRF reagents diluted in lysis buffer (kit components), the plates were incubated for 1 h, followed by measurement of the fluorescence ratio at 665/620 nm. The percent activity value (E %) was calculated by setting 1000 nM of urocortin 2 (UCN2) as 100%. The in vitro potency of the compounds was quantified by determining the concentrations that caused 50% activation of maximal response (EC50).
Using the procedure described in Example 7, the activity of the compounds at the rat CRF2R α receptor was assessed. The A7R5 rat aortic smooth muscle cell line was used in this study.

[2] = biological target: T1, CRF1R receptor (Homo sapiens, UniProt P34998); experiment: cAMP activity at anti-target CRF1R, CHO-K1 cell line clone 2 (Example 19.10); details: 100% = Sauvagine at 100 nM; CRF1R CHO-K1 clone 2
T1 construct: host or cells: CHO-K1 clone 2
T1 sequence (P34998 24-415): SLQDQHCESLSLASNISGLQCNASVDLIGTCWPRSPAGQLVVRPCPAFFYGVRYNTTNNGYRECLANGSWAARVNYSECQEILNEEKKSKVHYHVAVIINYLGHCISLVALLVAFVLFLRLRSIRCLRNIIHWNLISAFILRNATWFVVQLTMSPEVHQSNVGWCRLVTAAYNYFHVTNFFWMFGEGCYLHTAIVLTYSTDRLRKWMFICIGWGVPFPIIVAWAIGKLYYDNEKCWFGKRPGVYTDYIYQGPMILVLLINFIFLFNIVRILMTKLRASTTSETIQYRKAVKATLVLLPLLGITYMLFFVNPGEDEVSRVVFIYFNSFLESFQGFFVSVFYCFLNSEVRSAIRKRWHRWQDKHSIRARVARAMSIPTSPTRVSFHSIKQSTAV
Summary of the method: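 The cAMP read-out used the same protocol as the previous assay, except that Sauvagine at 100 nM set the 100% activation control. Cells were CHO-K1 clone 2 overexpressing CRF1R, cultured in F12 medium with 10% FBS and G418 and stored frozen until use.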

[3] = biological target: T2, human CRF2α receptor (Homo sapiens, UniProt Q13324); experiment: cAMP agonism at human CRF2 α receptor in TeloHEAC cells (Example 7); details: cAMP HTRF, TeloHEAC cells stably expressing human CRF2 α
T2 construct: expressed in transfected cells; host or cells: TeloHEAC
T2 sequence (Q13324 1-411): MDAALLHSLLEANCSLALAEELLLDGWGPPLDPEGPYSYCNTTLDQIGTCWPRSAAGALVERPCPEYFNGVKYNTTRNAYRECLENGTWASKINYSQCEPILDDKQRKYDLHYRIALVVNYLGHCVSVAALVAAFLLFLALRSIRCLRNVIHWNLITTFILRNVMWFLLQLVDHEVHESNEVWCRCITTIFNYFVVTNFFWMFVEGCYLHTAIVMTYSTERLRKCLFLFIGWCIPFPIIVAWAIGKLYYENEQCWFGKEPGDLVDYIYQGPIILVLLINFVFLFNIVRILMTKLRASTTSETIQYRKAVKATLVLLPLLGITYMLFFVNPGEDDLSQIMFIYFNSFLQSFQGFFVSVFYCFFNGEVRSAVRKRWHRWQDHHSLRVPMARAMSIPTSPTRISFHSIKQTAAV
Summary of the method: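 Percent activation was referenced to 1000 nM UCN2 (100%), and EC50 values taken as concentrations giving half of maximal response. The read-out was a homogeneous time-resolved fluorescence cAMP kit, fluorescence ratio 665/620 nm. Thawed cells (2000/well) saw compound for 30 min at RT in buffer with 2 mM IBMX and 0%/0.1% HSA.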

[4] = 0% HSA, read-out: EC50 [nM], 0% HSA
[5] = 0.1% HSA, read-out: EC50 [nM], 0.1% HSA

| Structure (SMILES) | EC50 [1] [nM] | Emax [2] [%] | EC50 [3, 4] [nM] | EC50 [3, 5] [nM] |
| --- | --- | --- | --- | --- |
| CCCCCCCCCCCCCCCC(=O)N[C@@H](CCC(=O)NCCCC[C@H](NC(=O)[C@H](CC(C)C)NC(=O)[C@H](CCCCN)NC(=O)[C@@H](NC(=O)[C@@H]1CCCN1C(=O)[C@H](NC(=O)[C@H](CC(=O)O)NC(=O)[C@H](CC(C)C)NC(=O)[C@H](CO)NC(=O)[C@H](CC(C)C)NC(=O)[C@@H](NC(=O)[C@@H](N)[C@@H](C)CC)C(C)C)C(C)C)[C@@H](C)O)C(=O)N[C@@H](CCC(N)=O)C(=O)N[C@@H](CCCCN)C(=O)N[C@@H](CC(C)C)C(=O)N[C@@H](CC(C)C)C(=O)N[C@@H](CCCCN)C(=O)N[C@@H](CCC(N)=O)C(=O)N[C@@H](CCC(=O)O)C(=O)N[C@@H](CCCNC(=N)N)C(=O)N[C@@H](CCC(N)=O)C(=O)N[C@@H](CCCNC(=N)N)C(=O)N[C@@H](CCCCN)C(=O)N[C@@H](CCC(=O)O)C(=O)N[C@@H](CCCNC(=N)N)C(=O)N[C@@H](CCC(=O)O)C(=O)NC(C)(C)C(=O)N[C@@H](C)C(=O)N[C@@H](CCC(=O)O)C(=O)N[C@@H](CCCCN)C(=O)N[C@@H](CC(N)=O)C(=O)N[C@@H](CCCCN)C(=O)N[C@@H](CCCNC(=N)N)C(=O)N[C@H](C(=O)N[C@@H](CC(C)C)C(=O)N[C@@H](CCC(=O)O)C(=O)N[C@@H](CCCNC(=N)N)C(=O)N[C@H](C(N)=O)C(C)C)[C@@H](C)CC)C(=O)O [SEQ ID NO: 225, IVLSLDvPTKLK*QKLLKQERQRKEREAibAEKNKRILERV-NH2] (H-IVLSLD[dV]PTKLK([γGlu-Palmitoyl])QKLLKQERQRKERE[Aib]AEKNKRILERV-NH2; N-terminus assumed) | 0.12 | 58.9 |  |  |
| CC[C@H](C)[C@H](N)C(=O)N[C@H](C(=O)N[C@@H](CC(C)C)C(=O)N[C@@H](CO)C(=O)N[C@@H](CC(C)C)C(=O)N[C@@H](CC(=O)O)C(=O)N[C@@H](C(=O)N1CCC[C@H]1C(=O)N[C@H](C(=O)N[C@@H](CCCCN)C(=O)N[C@@H](CC(C)C)C(=O)N[C@@H](CCCCNC(=O)CCCCCCCCCCCCCCCCC(=O)O)C(=O)N[C@@H](CCC(N)=O)C(=O)N[C@H](C(=O)N[C@@H](CC(C)C)C(=O)N[C@@H](CC(C)C)C(=O)N[C@@H](CCCCN)C(=O)N[C@@H](CCC(N)=O)C(=O)N[C@@H](CCC(=O)O)C(=O)N[C@@H](CCCNC(=N)N)C(=O)N[C@@H](CCC(N)=O)C(=O)N[C@@H](CCCCN)C(=O)NC(C)(C)C(=O)N[C@@H](CCC(N)=O)C(=O)N[C@@H](CCCNC(=N)N)C(=O)N[C@@H](CCC(=O)O)C(=O)N[C@@H](CCC(N)=O)C(=O)N[C@@H](C)C(=O)N[C@@H](CCC(=O)O)C(=O)N[C@@H](CCCCN)C(=O)N[C@@H](CC(N)=O)C(=O)N[C@@H](CCCCN)C(=O)N[C@@H](CCC(N)=O)C(=O)N[C@H](C(=O)N[C@@H](CC(C)C)C(=O)N[C@@H](C)C(=O)N[C@@H](CCC(N)=O)C(=O)N[C@H](C(N)=O)C(C)C)[C@@H](C)CC)[C@@H](C)CC)[C@@H](C)CC)C(C)C)C(C)C [compound 182] (H-IVLSLD[dV]PIKLK(C18 diacid)QILLKQERQK[Aib]QREQAEKNKQILAQV-NH2; N-terminus assumed) | 0.59 |  | 0.03 | 3.13 |
| CC[C@H](C)[C@H](N)C(=O)N[C@H](C(=O)N[C@@H](CC(C)C)C(=O)N[C@@H](CO)C(=O)N[C@@H](CC(C)C)C(=O)N[C@@H](CC(=O)O)C(=O)N[C@@H](C(=O)N1CCC[C@H]1C(=O)N[C@H](C(=O)N[C@@H](CCCCN)C(=O)N[C@@H](CC(C)C)C(=O)N[C@@H](CCCCNC(=O)CCCCCCCCCCCCCCCCC(=O)O)C(=O)N[C@@H](CCC(N)=O)C(=O)N[C@H](C(=O)N[C@@H](CC(C)C)C(=O)N[C@@H](CC(C)C)C(=O)N[C@@H](CCCCN)C(=O)N[C@@H](CCC(N)=O)C(=O)N[C@@H](C)C(=O)N[C@@H](CCCNC(=N)N)C(=O)N[C@@H](CCC(N)=O)C(=O)N[C@@H](CCCCN)C(=O)NC(C)(C)C(=O)N[C@@H](CCC(N)=O)C(=O)N[C@@H](CCCNC(=N)N)C(=O)N[C@@H](C)C(=O)N[C@@H](CCC(N)=O)C(=O)N[C@@H](C)C(=O)N[C@@H](CCC(=O)O)C(=O)N[C@@H](CCCCN)C(=O)N[C@@H](CC(N)=O)C(=O)N[C@@H](CCCCN)C(=O)N[C@@H](CCCNC(=N)N)C(=O)N[C@H](C(=O)N[C@@H](CC(C)C)C(=O)N[C@@H](CCC(=O)O)C(=O)N[C@@H](CCCNC(=N)N)C(=O)N[C@H](C(N)=O)C(C)C)[C@@H](C)CC)[C@@H](C)CC)[C@@H](C)CC)C(C)C)C(C)C [compound 183] (H-IVLSLD[dV]PIKLK(C18 diacid)QILLKQARQK[Aib]QRAQAEKNKRILERV-NH2; N-terminus assumed) | 1.12 |  | 0.12 | 1.58 |
| CC[C@H](C)[C@H](N)C(=O)N[C@H](C(=O)N[C@@H](CC(C)C)C(=O)N[C@@H](CO)C(=O)N[C@@H](CC(C)C)C(=O)N[C@@H](CC(=O)O)C(=O)N[C@@H](C(=O)N1CCC[C@H]1C(=O)N[C@H](C(=O)N[C@@H](CCCCN)C(=O)N[C@@H](CC(C)C)C(=O)N[C@@H](CCCCNC(=O)CCCCCCCCCCCCCCCCC(=O)O)C(=O)N[C@@H](CCC(N)=O)C(=O)N[C@H](C(=O)N[C@@H](CC(C)C)C(=O)N[C@@H](CC(C)C)C(=O)N[C@@H](CCCCN)C(=O)N[C@@H](CCC(N)=O)C(=O)N[C@@H](CCC(=O)O)C(=O)N[C@@H](CCCNC(=N)N)C(=O)N[C@@H](CCC(N)=O)C(=O)N[C@@H](CCCCN)C(=O)N[C@@H](CCCCN)C(=O)N[C@@H](CCC(N)=O)C(=O)N[C@@H](CCCNC(=N)N)C(=O)N[C@@H](CCC(N)=O)C(=O)N[C@@H](CCC(N)=O)C(=O)N[C@@H](C)C(=O)N[C@@H](CCC(=O)O)C(=O)N[C@@H](CCCCN)C(=O)N[C@@H](CC(N)=O)C(=O)N[C@@H](CCCCN)C(=O)N[C@@H](CCC(N)=O)C(=O)N[C@H](C(=O)N[C@@H](CC(C)C)C(=O)N[C@@H](C)C(=O)N[C@@H](CCC(N)=O)C(=O)N[C@H](C(N)=O)C(C)C)[C@@H](C)CC)[C@@H](C)CC)[C@@H](C)CC)C(C)C)C(C)C [compound 184] (H-IVLSLD[dV]PIKLK(C18 diacid)QILLKQERQKKQRQQAEKNKQILAQV-NH2; N-terminus assumed) | 0.42 |  | 0.05 | 2.83 |
